From patent publication US6559182B1 (Purcell Jojoba International, LLC, priority 2001, dated 2003)

Each compound was assayed on Herpes simplex (HSV1 facial herpes or HSV2 genital herpes) (assay: Survey of Herpes simplex patients who treated themselves with jojoba oil esters). Details: jojoba oil esters compared with the previously used medication.
Assay type: in vivo, human
Excerpt: The study included male and female subjects with a history of multiple Herpes simplex infections that were either HSV1 facial herpes or HSV2 genital herpes. There was non intentional discrimination as to age, sex, and educational or ethnic background.
In this study 57 subjects compared jojoba oil ester treatment with previously used remedies, including no treatment at all. Each subject was given directions as to how to apply the jojoba oil esters. Subjects were advised to begin treatment at the very earliest warning symptoms of burning, itching or tingling that precede a new cold sore outbreak. They were directed to apply one drop of the solution to the herpes area with their finger, then reapply it again in 15 minutes and at mealtimes and bedtime for three days.
The study utilized a survey sheet that included the average number of outbreaks per year in the past, time and date of this new outbreak and how many hours after the first symptoms before treatment was started. Subjects reported the number of doses applied, and the number of days from the onset until they were free of symptoms. They also rated the effectiveness of this treatment compared to previous remedies they had used.
`NCCCC[C@H](N)C(=O)O` [Lycine] was tested, and the “% reporting jojoba Ester more Effective” value was 67%, the “JOE avg effective (number of patients who had used this Rx)” value was 2 and the “JOE much more effective (number of patients who had used this Rx)” value (shortened to “JOE much more effective”) was 4.
`Nc1nc2c(ncn2COCCO)c(=O)[nH]1` [Acyclovir/Zovirax, Acyclovir] was tested, and the “% reporting jojoba Ester more Effective” value was 84%, the “JOE a little More effective (number of patients who had used this Rx)” value (“JOE a little More effective” for short) was 2 and the “JOE a little less effective (number of patients who had used this Rx)” value was 1. The “JOE avg effective (number of patients who had used this Rx)” value was 2 and the “JOE much more effective” value was 14.
In the case of `OO` [Hydrogen peroxide], the “% reporting jojoba Ester more Effective” value is reported as 100%, the “JOE a little More effective” value is reported as 1 and the “JOE much more effective” value is reported as 1.
For `C[S+](C)[O-]` [DMSO], the “% reporting jojoba Ester more Effective” value was 100% and the “JOE a little More effective” value was 1.
`CC(=O)OCC(CCn1cnc2cnc(N)nc21)COC(C)=O` [Famavir] was tested, and the “% reporting jojoba Ester more Effective” value was 100% and the “JOE much more effective” value was 1.
In the case of `CC(=O)Oc1ccccc1C(=O)O` [Aspirin], the “% reporting jojoba Ester more Effective” value is reported as 100% and the “JOE much more effective” value is reported as 1.
In the case of `CC[C@H]1OC(=O)[C@H](C)[C@@H](O[C@H]2C[C@@](C)(OC)[C@@H](O)[C@H](C)O2)[C@H](C)[C@@H](O[C@@H]2O[C@H](C)C[C@H](N(C)C)[C@H]2O)[C@](C)(O)C[C@@H](C)CN(C)[C@H](C)[C@@H](O)[C@]1(C)O` [Zithromax], the “% reporting jojoba Ester more Effective” value is reported as 100% and the “JOE much more effective” value is reported as 1.
In the case of `CC(C)[C@H](N)C(=O)OCCOCn1cnc2c(=O)[nH]c(N)nc21` [Valtrex], the “% reporting jojoba Ester more Effective” value is reported as 100%, the “JOE a little More effective” value is reported as 1 and the “JOE much more effective” value is reported as 1.
